Usually Inhibition stands for the relative decrease from the control value, in per cent.

What all share (type): functional
In test [1] the test system is Mus musculus. The test can be described thus: Compound was evaluated for the antinociceptive effects at the dose 2.0(mg/kg).
For test [2], the system named is Mus musculus. The test can be described thus: Compound was evaluated for the percent inhibition of PAF-induced Paw edema at the dose 0.5 (mg/kg) (Increases in paw volume is 28 uL).
In test [3] the test system is Mus musculus. The test can be described thus: Compound was evaluated for the antinociceptive effects at the dose 0.25(mg/kg).
Test [4] has as its system Mus musculus. The test can be described thus: Compound was evaluated for the percent inhibition of PAF-induced Paw edema at the dose 0.25 (mg/kg) (Increases in paw volume is 24 uL).
Test [5] relates to Mus musculus. The test can be described thus: Compound was evaluated for the antinociceptive effects at the dose 0.5(mg/kg).
The subject of test [6] is Mus musculus. The test can be described thus: Compound was evaluated for the antinociceptive effects at the dose 1.0(mg/kg).
Test [7] concerns Mus musculus. The test can be described thus: Compound was evaluated for the antinociceptive effects at the dose 4.0(mg/kg).
Test [8] relates to Mus musculus. The test can be described thus: Compound was evaluated for the percent inhibition of PAF-induced Paw edema at the dose 0.1 (mg/kg) (Increases in paw volume is 38 uL).
The test system of test [9] is Mus musculus. The test can be described thus: Compound was evaluated for the cataleptic effect in the mouse at the dose 5.0(mg/kg).
For test [10], the system named is Mus musculus. The test can be described thus: Compound was evaluated for the cataleptic effect in the mouse at the dose 0.5 mg/kg.
The test system of test [11] is Mus musculus. The test can be described thus: Compound was evaluated for the effect on leukocyte adhesion at the dose 40 (mg/kg); oral administration.
For test [12], the system named is Mus musculus. The test can be described thus: Compound was evaluated for the effect on leukocyte adhesion at the dose 20 (mg/kg); oral administration.
Test [13] relates to Mus musculus. The test can be described thus: Compound was evaluated for the antinociceptive effects at the dose 0.05(mg/kg).
For test [14], the system named is Mus musculus. The test can be described thus: Compound was evaluated for the percent inhibition of PAF-induced Paw edema at the dose 0.05 (mg/kg) (Increases in paw volume is -1.2 uL).
The test system of test [15] is Mus musculus. The test can be described thus: Compound was evaluated for the antinociceptive effects at the dose 0.1(mg/kg).
In test [16] the test system is Mus musculus. The test can be described thus: Compound was evaluated for the effect on leukocyte adhesion at the dose 0.1 (mg/kg); oral administration.
Test [17] deals with Mus musculus. The test can be described thus: Compound was evaluated for the antinociceptive effects at the dose 0.025(mg/kg).
Test [18] deals with Mus musculus. The test can be described thus: Compound was evaluated for the effect on leukocyte adhesion at the dose 1.0 (mg/kg); oral administration.
In test [19] the test system is Mus musculus. The test can be described thus: Compound was evaluated for the percent inhibition of arachidonic acid-induced paw edema at the dose 0.05(mg/kg).
Test [20] concerns Mus musculus. The test can be described thus: Compound was evaluated for the effect on leukocyte adhesion at the dose 0.01 (mg/kg); oral administration.
Test [21] concerns Mus musculus. The test can be described thus: Compound was evaluated for the percent inhibition of PAF-induced Paw edema at the dose 0.1 (mg/kg) (Increases in paw volume is -10 uL).
Test [22] relates to Mus musculus. The test can be described thus: Compound was evaluated for the percent inhibition of arachidonic acid-induced paw edema at the dose 0.5(mg/kg).
In test [23] the test system is Mus musculus. The test can be described thus: Compound was evaluated for the percent inhibition of PAF-induced Paw edema at the dose 0.25 (mg/kg) (Increases in paw volume is -14 uL).
Test [24] relates to Mus musculus. The test can be described thus: Compound was evaluated for the cataleptic effect in the mouse at the dose 1.0(mg/kg).
Test [25] concerns Mus musculus. The test can be described thus: Compound was evaluated for the cataleptic effect in the mouse at the dose 0.1(mg/kg).
The test system of test [26] is Mus musculus. The test can be described thus: Compound was evaluated for the percent inhibition of PAF-induced Paw edema at the dose 0.5 (mg/kg) (Increases in paw volume is -20 uL).
The subject of test [27] is Mus musculus. The test can be described thus: Compound was evaluated for the percent inhibition of arachidonic acid-induced paw edema at the dose 0.25(mg/kg).
The test system of test [28] is Mus musculus. The test can be described thus: Compound was evaluated for the effect on leukocyte adhesion at the dose 0.5 (mg/kg); oral administration.
Test [29] deals with Mus musculus. The test can be described thus: Compound was evaluated for the percent inhibition of arachidonic acid-induced paw edema at the dose 0.1(mg/kg).
Test [30] concerns Mus musculus. The test can be described thus: Compound was evaluated for the effect on leukocyte adhesion at the dose 0.05 (mg/kg); oral administration.
Test [31] relates to Mus musculus. The test can be described thus: Compound was evaluated for the effect on leukocyte adhesion at the dose 0.5(mg/kg); oral administration.
The subject of test [32] is Mus musculus. The test can be described thus: Compound was evaluated for the effect on leukocyte adhesion at the dose 0.2 (mg/kg); oral administration.
Test [33] concerns Mus musculus. The test can be described thus: Compound was evaluated for the percent inhibition of PAF-induced Paw edema at the dose 1.0 (mg/kg) (Increases in paw volume is 14 uL).
For test [34], the system named is Mus musculus. The test can be described thus: Compound was evaluated for the percent inhibition of PAF-induced Paw edema at the dose 0.5 (mg/kg) (Increases in paw volume is 30 uL).
Test [35] deals with Mus musculus. The test can be described thus: Compound was evaluated for the cataleptic effect in the mouse at the dose 40 mg/kg.
For test [36], the system named is Mus musculus. The test can be described thus: Compound was evaluated for the percent inhibition of PAF-induced Paw edema at the dose 0.5 (mg/kg) (Increases in paw volume is 7.5 uL).
Test [37] has as its system Mus musculus. The test can be described thus: Compound was evaluated for the percent inhibition of PAF-induced Paw edema at the dose 0.25 (mg/kg) (Increases in paw volume is 11 uL).
The subject of test [38] is Mus musculus. The test can be described thus: Compound was evaluated for the cataleptic effect in the mouse at the dose 4.0(mg/kg).
In test [39] the test system is Mus musculus. The test can be described thus: Compound was evaluated for the percent inhibition of PAF-induced Paw edema at the dose 0.05 (mg/kg) (Increases in paw volume is 10 uL).
Test [40] deals with Mus musculus. The test can be described thus: Compound was evaluated for the cataleptic effect in the mouse at the dose 0.5(mg/kg).
The test system of test [41] is Mus musculus. The test can be described thus: Compound was evaluated for the cataleptic effect in the mouse at the dose 0.25(mg/kg).
Test [42] concerns Mus musculus. The test can be described thus: Compound was evaluated for the percent inhibition of PAF-induced Paw edema at the dose 0.1 (mg/kg) (Increases in paw volume is 19 uL).
Test [43] relates to Mus musculus. The test can be described thus: Compound was evaluated for the percent inhibition of PAF-induced Paw edema at the dose 0.5 (mg/kg) (Increases in paw volume is 44 uL).
The test system of test [44] is Mus musculus. The test can be described thus: Compound was evaluated for the percent inhibition of PAF-induced Paw edema at the dose 1.0 (mg/kg) (Increases in paw volume is 28 uL).

The structures appear in SMILES notation. Several values for one entry are separate records, joined by “and”; a condition that tells them apart may be missing. Equal entries are not always repeated.

For `CCCCCCC(C)(C)c1cc(O)c2c(c1)OC(C)(C)C1CC=C(C(=O)OC)C[C@H]21` (some centres undefined), the Change in the test on Mus musculus [1] is listed as 37.5%; with Mus musculus [3], 10.4%; with Mus musculus [5] it was 49%; in the test on Mus musculus [6] it was 61.4%; in the test on Mus musculus [7] it was 3.1%. For the same molecule, the Inhibition in the test with Mus musculus [2] is listed as -7.5%; with Mus musculus [4], 7.6%; in the test on Mus musculus [8], -44.2%.
Turning to `CCCCCc1cc(O)c2c(c1)OC(C)(C)[C@H]1C(C(=O)O)CC(C)=CC21` (some centres undefined), the No. of cells was 10.1 with Mus musculus [9], 10 with Mus musculus [10], 0.55 in the test on Mus musculus [11] and 0.67 in the test on Mus musculus [12].
In the case of `CCCCCCC(C)(C)c1cc(O)c2c(c1)OC(C)(C)[C@@H]1CC=C(C(=O)O)CC21` (some centres undefined), the Change in the test on Mus musculus [13] was found to be 85%; in the test on Mus musculus [15], 68.3%; with Mus musculus [3] it was 33.4%; with Mus musculus [17] it was 20.8%; in the test with Mus musculus [5], 34%; in the test on Mus musculus [6], 28.4%. The Inhibition in the test with Mus musculus [14] was 101%; in the test with Mus musculus [19], 26.3%; in the test with Mus musculus [21] it was 135%; with Mus musculus [22] it was 73.7% and 97.4% and 100%; in the test on Mus musculus [23], 150%; with Mus musculus [26], 171%. The Inhibition with Mus musculus [27] is 56.4%; with Mus musculus [29], 52.6%. Moreover, the No. of cells with Mus musculus [16] is reported as 0.64; with Mus musculus [18], 0.3; in the test on Mus musculus [20], 0.88; with Mus musculus [28], 0.87; in the test on Mus musculus [30], 1.34. The Response in the test with Mus musculus [24] is 12.2; in the test on Mus musculus [25], 5.8.
With `CCCCCCC(C)(C)c1cc(O)c2c(c1)OC(C)(C)[C@@H]1CC=C(CO)CC21` (some centres undefined), the No. of cells is listed as 0.94 in the test on Mus musculus [16], 0.59 in the test on Mus musculus [31], 0.58 in the test on Mus musculus [32] and 1.12 in the test with Mus musculus [30]. Moreover, the Inhibition in the test with Mus musculus [33] is 56.3%; with Mus musculus [34], 6.3%.
In the case of `CCCCCc1cc(O)c2c(c1)OC(C)(C)[C@@H]1CCC(C)=C[C@@H]21` [DRONABINOL], the Cataleptic effect with Mus musculus [35] is given as 48.9.
As to `CCCCCCC(C)(C)c1cc(O)c2c(c1)OC(C)(C)C1CC=C(C(=O)O)C[C@H]21` (some centres undefined), the Change in the test with Mus musculus [13] amounted to 61.7%; with Mus musculus [15], 49.5%; with Mus musculus [3], 61.5%; in the test on Mus musculus [17], 10.3%; with Mus musculus [5], 51.7%; in the test with Mus musculus [6], 14.7%. The No. of cells in the test with Mus musculus [16] was 1.38; in the test on Mus musculus [18], 0.7; in the test with Mus musculus [20], 1.34; in the test on Mus musculus [28], 1.46; with Mus musculus [30] it was 1.29. Further, the Inhibition in the test with Mus musculus [36] is 60.1%; in the test on Mus musculus [37] it was 31.9%; in the test on Mus musculus [39] it was 44.4%; in the test with Mus musculus [19], 42.1%; in the test with Mus musculus [22] it was 47.4%; in the test with Mus musculus [42] it was 38.7%. Moreover, the figures for the Inhibition in the test with Mus musculus [27] and with Mus musculus [29] were 52.6% and 65.8%, respectively. Moreover, the Response turned out to be 8.7 with Mus musculus [38], 13.8 in the test with Mus musculus [40], 10.4 in the test with Mus musculus [24] and 12.3 with Mus musculus [41].
Take `CCCCCCC(C)(C)c1cc(O)c2c(c1)OC(C)(C)C1CC=C(CO)C[C@H]21` (some centres undefined): the No. of cells in the test on Mus musculus [16] came out at 0.44; in the test with Mus musculus [18], 0.59; with Mus musculus [28] it was 0.64; with Mus musculus [30], 1.09. Also, the results for the Inhibition with Mus musculus [43] and in the test with Mus musculus [44] were -37.5% and 21.8%, respectively.
For `CCCCCCC(C)(C)c1cc(O)c2c(c1)OC(C)(C)[C@@H]1CC=C(C(=O)OC)CC21` (some centres undefined), the Change with Mus musculus [1] is recorded as 42.9%; with Mus musculus [5], -2.8%. The values for the Inhibition in the test with Mus musculus [36], in the test on Mus musculus [37] and with Mus musculus [42] were 76%, 63.9% and 69.3%, respectively.

For the origin of these results see ChEMBL document CHEMBL1125531, “Synthetic nonpsychotropic cannabinoids with potent antiinflammatory, analgesic, and leukocyte antiadhesion activities” (1992).
